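A five-concentration, 48-hour dose response in 96-well plates underlies each endpoint, interpolated linearly between surrounding concentrations. TGI: concentration producing complete growth inhibition.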
Columns and labels:
Test in all cases: NCI-60 cell line screen, 48 h
EKVX NSCLC = system: EKVX NSCLC
NCI/ADR-RES ovarian = system: NCI/ADR-RES ovarian
BT-549 breast = system: BT-549 breast
SK-MEL-5 melanoma = system: SK-MEL-5 melanoma
DU-145 prostate = system: DU-145 prostate
IGROV1 ovarian = system: IGROV1 ovarian
NCI-H460 lung = system: NCI-H460 lung
OVCAR-5 ovarian = system: OVCAR-5 ovarian
A549 NSCLC = system: A549 NSCLC
MCF7 breast = system: MCF7 breast
U251 CNS = system: U251 CNS
SR leukemia = system: SR leukemia

`N#Cc1c(-c2ccccc2)c2c([nH]c1=O)-c1cc([N+](=O)[O-])ccc1CCC2` gave a TGI (EKVX NSCLC) of 88.5 µM, a TGI (NCI/ADR-RES ovarian) of 71.5 µM and a TGI (BT-549 breast) of 42.7 µM. The TGI (SK-MEL-5 melanoma) was 76 µM, the TGI (DU-145 prostate) was 71.2 µM and the TGI (IGROV1 ovarian) was greater than 100 µM. For the same molecule, the TGI (NCI-H460 lung) was greater than 100 µM, the TGI (OVCAR-5 ovarian) was greater than 100 µM and the TGI (A549 NSCLC) was greater than 100 µM. For the same molecule, the TGI (MCF7 breast) was 71.8 µM, the TGI (U251 CNS) was greater than 100 µM and the TGI (SR leukemia) was greater than 100 µM.

Molecule `CN(C)CCCNC(=O)c1c(O)c2ccccc2n(C)c1=O` has a TGI (EKVX NSCLC) greater than 100 µM, a TGI (NCI/ADR-RES ovarian) greater than 100 µM and a TGI (BT-549 breast) greater than 100 µM. The TGI (SK-MEL-5 melanoma) was greater than 100 µM, the TGI (DU-145 prostate) was greater than 100 µM and the TGI (IGROV1 ovarian) was greater than 100 µM. It also gave a TGI (NCI-H460 lung) greater than 100 µM, a TGI (OVCAR-5 ovarian) greater than 100 µM and a TGI (A549 NSCLC) greater than 100 µM. It also gave a TGI (MCF7 breast) greater than 100 µM, a TGI (U251 CNS) greater than 100 µM and a TGI (SR leukemia) greater than 100 µM.

`C[C@H]1[C@H](C)CC[C@]2(C(=O)OC3OC(CO)C(O)C(O)C3O)CC[C@]3(C)C(=CC[C@@H]4[C@@]5(C)C[C@H]6OC(=O)c7cc(O)c(O)c(O)c7-c7c(cc(O)c(O)c7O)C(=O)O[C@@H]6C(CO)(CO)[C@@H]5CC[C@]43C)[C@H]12` (stereo partly specified) gave a TGI (EKVX NSCLC) greater than 100 µM, a TGI (NCI/ADR-RES ovarian) greater than 100 µM and a TGI (BT-549 breast) greater than 100 µM. For the same molecule, the TGI (SK-MEL-5 melanoma) was greater than 100 µM, the TGI (DU-145 prostate) was greater than 100 µM and the TGI (IGROV1 ovarian) was greater than 100 µM. For the same molecule, the TGI (NCI-H460 lung) was greater than 100 µM, the TGI (OVCAR-5 ovarian) was greater than 100 µM and the TGI (A549 NSCLC) was greater than 100 µM. It also gave a TGI (MCF7 breast) of 38.5 µM, a TGI (U251 CNS) of 42.2 µM and a TGI (SR leukemia) greater than 96.3 µM.

Work on `COC1C(O)C(O[C@H]2CC[C@@]3(C)C(CC[C@@H]4[C@@H]3CC[C@]3(C)[C@@H](C(C)OC5OC(CO)C(O)C(O)C5O)CC[C@]43O)C2)OC(C)C1OC1OC(CO)C(O)C(O)C1O` (stereo partly specified) yielded a TGI (EKVX NSCLC) greater than 100 µM, a TGI (NCI/ADR-RES ovarian) greater than 100 µM and a TGI (BT-549 breast) greater than 100 µM. The TGI (SK-MEL-5 melanoma) was greater than 100 µM, the TGI (DU-145 prostate) was greater than 100 µM and the TGI (IGROV1 ovarian) was greater than 100 µM. For the same molecule, the TGI (NCI-H460 lung) was greater than 100 µM, the TGI (OVCAR-5 ovarian) was greater than 100 µM and the TGI (A549 NSCLC) was greater than 100 µM. For the same molecule, the TGI (MCF7 breast) was greater than 100 µM, the TGI (U251 CNS) was greater than 100 µM and the TGI (SR leukemia) was greater than 100 µM.

Molecule `C/C(=N\Nc1nc2ccccc2s1)c1ccc2ccccc2n1` has a TGI (EKVX NSCLC) greater than 100 µM, a TGI (NCI/ADR-RES ovarian) greater than 100 µM and a TGI (BT-549 breast) greater than 100 µM. It also gave a TGI (SK-MEL-5 melanoma) greater than 100 µM, a TGI (DU-145 prostate) greater than 100 µM and a TGI (IGROV1 ovarian) of 47.1 µM. For the same molecule, the TGI (NCI-H460 lung) was greater than 100 µM, the TGI (OVCAR-5 ovarian) was greater than 100 µM and the TGI (A549 NSCLC) was greater than 100 µM. For the same molecule, the TGI (MCF7 breast) was greater than 100 µM, the TGI (U251 CNS) was greater than 100 µM and the TGI (SR leukemia) was 5.88 µM.

Molecule `CC1(C)N=C2C(=O)c3c([nH]c4ccccc34)[C@]3(C)CCC1CC23` (stereo partly specified) has a TGI (EKVX NSCLC) greater than 6.25 µM, a TGI (NCI/ADR-RES ovarian) greater than 6.25 µM and a TGI (BT-549 breast) greater than 6.25 µM. For the same molecule, the TGI (SK-MEL-5 melanoma) was greater than 6.25 µM, the TGI (DU-145 prostate) was greater than 6.25 µM and the TGI (IGROV1 ovarian) was greater than 6.25 µM. The TGI (NCI-H460 lung) was greater than 6.25 µM, the TGI (OVCAR-5 ovarian) was greater than 6.25 µM and the TGI (A549 NSCLC) was greater than 6.25 µM. It also gave a TGI (MCF7 breast) greater than 6.25 µM, a TGI (U251 CNS) greater than 6.25 µM and a TGI (SR leukemia) greater than 6.25 µM.

`CCNc1ncnc2sc(SCc3ccccc3)nc12` gave a TGI (EKVX NSCLC) greater than 100 µM, a TGI (NCI/ADR-RES ovarian) greater than 100 µM and a TGI (BT-549 breast) greater than 100 µM. The TGI (SK-MEL-5 melanoma) was greater than 100 µM, the TGI (DU-145 prostate) was greater than 100 µM and the TGI (IGROV1 ovarian) was greater than 100 µM. For the same molecule, the TGI (NCI-H460 lung) was greater than 100 µM, the TGI (OVCAR-5 ovarian) was greater than 100 µM and the TGI (A549 NSCLC) was greater than 100 µM. It also gave a TGI (MCF7 breast) greater than 100 µM, a TGI (U251 CNS) greater than 100 µM and a TGI (SR leukemia) greater than 100 µM.

Molecule `CC(C)/C(Cl)=N/OC(=O)Nc1ccc(OC(F)(F)F)cc1` has a TGI (EKVX NSCLC) of 22.9 µM, a TGI (NCI/ADR-RES ovarian) of 33.6 µM and a TGI (BT-549 breast) of 29.8 µM. For the same molecule, the TGI (SK-MEL-5 melanoma) was 21.3 µM, the TGI (DU-145 prostate) was 31.5 µM and the TGI (IGROV1 ovarian) was 30.5 µM. It also gave a TGI (NCI-H460 lung) of 31.2 µM, a TGI (OVCAR-5 ovarian) of 29.2 µM and a TGI (A549 NSCLC) of 34.8 µM. For the same molecule, the TGI (MCF7 breast) was 28 µM, the TGI (U251 CNS) was 31.2 µM and the TGI (SR leukemia) was 8.44 µM.

From PubChem BioAssay (NCI)
